Results taken from patent publication US10780174B2, “Lipid-linked prodrugs” (The University of British Columbia, priority 2015, dated 2020).
pIC50: −log10 of the molar value.

Tests used:
OVCAR3 cells = experiment: In vitro growth inhibition by LD-DTX prodrugs, cell viability assay; type: cell-based; details: for pIC50: Homo sapiens, OVCAR-3, 48 h, Ovcar3 cells
Procedure: OVCAR3 cells were obtained from ATCC (Manassas, Va.). Cells were seeded at 12,000 cells per well on 96-well plates and treated with free docetaxel, prodrugs, lipid nanoparticle formulations with or without prodrugs at 0 to 15 μM of docetaxel for 48 h. Cell viability was determined by a colorimetric assay, based on the tetrazolium salt MIT (3-(4,5-dimethylthiazol-2-yl)-2,5-diphenyltetrazolium bromide), as described previously [Mossman 1983].

[1] = In vitro degradation of lipid-linked prodrugs in LNP, mouse plasma; type: in vitro ADME; details: LNP, 1 h, 37° C., mouse plasma
Procedure: (§1) Quantitation of prodrugs by HPLC: LD-DEX/DTX were quantified by ultra high-pressure liquid chromatography (UHPLC) using a Waters Acquity™ UPLC system equipped with a photodiode array detector (PDA) and evaporative light scattering (ELS) detector; Empower™ data acquisition software version 3.0 was used (Waters™, USA). Separations were performed using a Waters Acquity™ BEH C18 column (1.7 μm, 2.1×100 mm) at a flow rate of 0.5 ml/min, with mobile phases A and B consisting of methanol/10 mM ammonium bicarbonate (80/20% v/v) and methanol/acetonitrile (80/20% v/v), respectively. The mobile phases were delivered at a programmed linear gradient (45%-80% B in 1 min then to 99% B at 2 min) at a column temperature of 55° C. The analyte was measured by PDA (at a wavelength of 239 nm) and ELS detector against calibration standard curves. For the analysis of LD-DEX/DTX breakdown to active compound, linear gradients of 20/80% to 100/0% (acetonitrile/water, v/v) over 7 min were used.
To determine the biodegradability of the dexamethasone or docetaxel prodrugs (LD-DEX/DTX), 1 mg/mL LNP was incubated in mouse plasma (Cedarlane™, Burlington, Ontario) or PBS supplemented with 10 U of purified esterase (Sigma-Aldrich™, St. […] Post incubation, four volumes of chloroform/methanol (2:1) was added and the mixture was vortex mixed. Samples were centrifuged at 13,000 g for 5 minutes and the upper phase was discarded. The remaining organic phase was dried down under vacuum and the resulting lipid extract was dissolved in methanol/acetonitrile (1:1). Quantity of parent LD-DEX/DTX compound was determined by ultra high pressure liquid chromatography on a Waters Acquity™ H-Class UPLC System™ equipped with a BEH C18 column and a photodiode array detector.

[2] = Particle size and polydispersity of LNP containing prodrug (dynamic light scattering); type: physicochemical; details: PDI in brackets; for Particle size (PDI) PC-Chol LNP: LD-DTX prodrug in PC-Chol LNP; for Particle size (PDI) [ionizable LNP]: LD-DTX prodrug in ionizable LNP
Procedure: (§2) Preparation of LNP Systems: PC-Chol LNP systems were prepared by rapidly mixing POPC, cholesterol, lipid-linked prodrug and PEG-DMPE (in molar ratio of 49/39/10/2) dissolved in ethanol with phosphate-buffered saline using a T-junction mixer. Formulations were dialyzed against phosphate-buffered saline to remove residual ethanol and to raise the pH to 7.4. PC-TO and ionizable LNP systems were prepared in the same way except that the lipid compositions for these systems are: POPC, triolein, lipid-linked prodrug and PEG-DSPE (in molar ration of 19/70/10/1), and ionizable lipid, DSPC, cholesterol, lipid-linked prodrug and PEG-DMPE (in molar ration of 40/10/38.5/10/1.5), respectively.
Characterization of LNP: Particle size was determined by dynamic light scattering using a Malvern Zetasizer Nano ZS™ (Malvern, UK) following buffer exchange into phosphate-buffered saline. Number-weighted size and distribution data was used. Lipid concentrations were determined by measuring total cholesterol using the Cholesterol E enzymatic assay kit from Wako Chemicals USA™ (Richmond, Va.). The morphology of LNP formulations containing LD-DEX was analyzed by cryogenic-transmission electron microscopy (cryoTEM) as described previously [Leung et al. (2012)].

[3] = Prodrug incorporation (entrapment) in lipid nanoparticles, UHPLC; type: physicochemical; details: for % Entrapment PC-Chol LNP: LD-DTX prodrug in PC-Chol LNP; for % Entrapment [ionizable LNP]: LD-DTX prodrug in ionizable LNP
Procedure: as §2, §1

Row | SMILES | suppression of cancer cell proliferation / IC50 comparison (in words) (OVCAR3 cells; OVCAR3, 0 to 15 μM of docetaxel, 48 h) | prodrug cleavage/degradation after 1 h in plasma [1] | Particle size (PDI) PC-Chol LNP [2] | Particle size (PDI) [ionizable LNP] [2] | pIC50 (OVCAR3 cells; Free drugs) | pIC50 (OVCAR3 cells; PC-Chol LNP) | pIC50 (OVCAR3 cells; PC-TO LNP) | pIC50 (OVCAR3 cells; ionizable LNP) | % Entrapment PC-Chol LNP [3] [%] | % Entrapment [ionizable LNP] [3]
1 | CC(=O)O[C@@]12CO[C@@H]1C[C@H](O)[C@@]1(C)C(=O)[C@H](O)C3=C(C)[C@@H](OC(=O)[C@H](O)[C@@H](NC(=O)OC(C)(C)C)c4ccccc4)C[C@@](O)([C@@H](OC(=O)c4ccccc4)[C@H]21)C3(C)C [Docetaxel, reference compound] | much lower than all the other test articles | – | – | – | – | – | – | – | – | –
2 | CCCCC/C=C\C/C=C\CCCCCCCC(=O)OCC(COC(=O)CCC(=O)O[C@@H](C(=O)O[C@H]1C[C@@]2(O)[C@@H](OC(=O)c3ccccc3)[C@@H]3[C@]4(OC(C)=O)CO[C@@H]4C[C@H](O)[C@@]3(C)C(=O)[C@H](O)C(=C1C)C2(C)C)[C@@H](NC(=O)OC(C)(C)C)c1ccccc1)OC(=O)CCCCCCC/C=C\C/C=C\CCCCC (stereo partly drawn) [LD10-DTX, (2R,3S)-1-(((2aR,4S,4aS,6R,9S,11S,12S,12aR,12bS)-12b-acetoxy-12-(benzoyloxy)-4,6,11-trihydroxy-4a,8,13,13-tetramethyl-5-oxo-2a,3,4,4a,5,6,9,10,11,12,12a,12b-dodecahydro-1H-7,11-methanocyclodeca[3,4]benzo[1,2-b]oxet-9-yl)oxy)-3-((tert-butoxycarbonyl)amino)-1-oxo-3-phenylpropan-2-yl (2,3-bis((9Z,12Z)-octadeca-9,12-dienoyloxy)propyl) succinate] | – | largely not degraded | 58 (0.06) nm | [42 (0.06)] nm | 6.81 | 6.43 | 6.10 | 6.88 | 95 | [100] %
3 | CCCCCCCC/C=C\CCCCCCCC(=O)OCC(COC(=O)CCC(=O)O[C@@H](C(=O)O[C@H]1C[C@@]2(O)[C@@H](OC(=O)c3ccccc3)[C@@H]3[C@]4(OC(C)=O)CO[C@@H]4C[C@H](O)[C@@]3(C)C(=O)[C@H](O)C(=C1C)C2(C)C)[C@@H](NC(=O)OC(C)(C)C)c1ccccc1)OC(=O)CCCCCCC/C=C\CCCCCCCC (stereo partly drawn) [LD23-DTX, (2R,3S)-1-(((2aR,4S,4aS,6R,9S,11S,12S,12aR,12bS)-12b-acetoxy-12-(benzoyloxy)-4,6,11-trihydroxy-4a,8,13,13-tetramethyl-5-oxo-2a,3,4,4a,5,6,9,10,11,12,12a,12b-dodecahydro-1H-7,11-methanocydodeca[3,4]benzo[1,2-b]oxet-9-yl)oxy)-3-((tert-butoxycarbonyl)amino)-1-oxo-3-phenylpropan-2-yl (2,3-bis(oleoyloxy)propyl) succinate] | – | largely not degraded | 60 (0.05) nm | [39 (0.06)] nm | 7.19 | ~4.81 | 6.16 | 7.00 | 100 | [100] %
